This passage reports IC50 results from BindingDB's records for doi:10.7270/Q2B856NC (Burnham Center For Chemical Genomics, 2011).

Molecules are shown by their SMILES. Some results are limits rather than exact numbers.

The experiment deals with T1, Apelin receptor (Homo sapiens, UniProt P35414).
T1 sequence (P35414 whole entry): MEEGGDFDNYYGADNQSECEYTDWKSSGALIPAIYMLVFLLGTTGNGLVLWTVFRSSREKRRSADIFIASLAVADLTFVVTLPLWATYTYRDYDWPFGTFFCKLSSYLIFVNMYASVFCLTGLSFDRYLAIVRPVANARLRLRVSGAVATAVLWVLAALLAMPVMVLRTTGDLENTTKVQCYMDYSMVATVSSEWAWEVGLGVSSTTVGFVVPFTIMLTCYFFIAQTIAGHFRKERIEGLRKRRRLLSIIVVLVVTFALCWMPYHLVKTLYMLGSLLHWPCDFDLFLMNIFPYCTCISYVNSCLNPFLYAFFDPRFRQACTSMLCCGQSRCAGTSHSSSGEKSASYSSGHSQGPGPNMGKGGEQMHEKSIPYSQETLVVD
As to the kind of experiment: apelin receptor antagonists, arrestin read-out – cell-based, luminescent, enzyme-fragment complementation, selectivity assay for CCR6 antagonist project, SAR follow-up (AID 588359).
A word on the IC50: it is the midpoint of a concentration-inhibition curve. Turning to `OCC12C=CC(O1)c1c2c(O)n(-c2ccccc2-c2ccccc2)c1O` (stereo not drawn) [7-(hydroxymethyl)-2-(2-phenylphenyl)-4,7a-dihydro-3aH-octahydro-1H-4,7-epoxyisoindole-1,3-dione], the IC50 is greater than 66.6 µM.

With `CC(N=Nc1ccc2ccccc2n1)c1ccccc1O` (stereo not drawn) [(6Z)-6-[1-[N'-(2-quinolyl)hydrazino]ethylidene]cyclohexa-2,4-dien-1-one], the IC50 was determined as 4.12 µM.

`CN1C(=O)C(C2CC(c3ccc(Cl)cc3)N=N2)C(=O)N(C)C1=O` (stereo not drawn) [SMR000439471]: the IC50 is 7.22 µM.
